{"source": "patent US9334475B2", "about": "“Method for inducing erythropoietin-producing cell” (Kyoto University, priority 2012, dated 2016)", "key": {"[1]": {"system": "EPO-producing cells induced to differentiate from human iPS cells", "assay": "EPO production-promoting ability in Step 2 of differentiation of human iPS cells", "type": "cell-based", "conditions": "Step 2, compared with IGF-2 (FIG. 4)", "procedure": "(§1) Human iPS cells (201B6, 201B7, and 253G4) were obtained from Professor Yamanaka of Kyoto University, and cultured in accordance with a conventional method (Takahashi K, et al. Cell. 131: pp. 861 to 872). Using SNL cells (McMahon, A. P. and Bradley, A. (1990) Cell 62; pp. 1073 to 1085) as feeder cells, the iPS cells were cultured to 80 to 90% confluency on a 6 cm dish. The cells were then detached by adding a CTK solution and the feeder cells were removed, and 1 mL of Accutase™ was added to dissociate the iPS cells into single cells.\nSubsequently, the iPS cells were suspended in an RPMI medium containing 10 μM Y-27632, 2% B27, and penicillin/streptomycin and then seeded in a Matrigel-coated 24-well plate at 250,000 cells/well. After adding 100 ng/mL Activin and 1 μM CHIR99021, the volume of medium was adjusted to 0.5 mL/well, and the cells were cultured for six days (Step 1). At this time, on Day 2, 0.5 mM NaB was added to the medium (without medium exchange), and on Day 3, the medium was exchanged for a medium containing 100 ng/mL A ctivin, 1 μM CHIR99021, and 0.5 mM NaB, and on Day 5, the medium was exchanged for a medium containing 100 ng/mL Activin and 1 μM CHIR99021. […]\nIn Step 2, the cells were analyzed after 18 days of culture. […]"}, "[2]": {"system": "EPO-producing cells induced to differentiate from human iPS cells", "assay": "ELISA of extracellular EPO secretion by EPO-producing cells at various IGF-1 concentrations", "type": "cell-based", "procedure": "as §1\nSubsequently, the iPS cells were suspended in an RPMI medium containing 10 μM Y-27632, 2% B27, and penicillin/streptomycin and then seeded in a Matrigel-coated 24-well plate at 250,000 cells/well. After adding 100 ng/mL Activin and 1 μM CHIR99021, the volume of medium was adjusted to 0.5 mL/well, and the cells were cultured for six days (Step 1). At this time, on Day 2, 0.5 mM NaB was added to the medium (without medium exchange), and on Day 3, the medium was exchanged for a medium containing 100 ng/mL A ctivin, 1 μM CHIR99021, and 0.5 mM NaB, and on Day 5, the medium was exchanged for a medium containing 100 ng/mL Activin and 1 μM CHIR99021.\nAfter six days of culture, the medium was replaced by a DMEM medium containing 1% DMSO, 50 ng/mL IGF-1, 20% KSR, 2 mM L-glutamine, nonessential amino acid (NEAA), 100 μM β-ME (2-mercaptoethanol), 50 mU/L penicillin, and 50 μg/L streptomycin, and the cells were cultured for a certain period of days (Step 2). During cell culture, the medium was exchanged every other day.\nSubsequently, ELISA was performed to study whether the EPO protein expressed was secreted out of the cells. As a result, EPO protein was confirmed outside the cells. […] Further, as a result of studying the amount of IGF-1 added and the number of days of culture, the highest amount of EPO secretion was observed when the cells were cultured for 10 days at 50 ng/mL (FIG. 6). […]"}}, "data": [{"substance": "IGF-1: IGF family gene product used as a growth factor in the Step 2 medium", "values": [{"measurement": "EPO production-promoting ability", "setting": "[1]", "result": "promote EPO production more potently than IGF-2"}, {"measurement": "days of culture in Step 2 giving the highest amount of EPO secretion", "setting": "[2]; IGF-1 at 50 ng/mL (FIG. 6)", "result": 10, "unit": "days"}, {"measurement": "change in EPO secretion over time", "setting": "[2]; IGF-1 at 100 ng/mL, Step 2 (FIG. 6)", "result": "an increasing trend of EPO secretion was confirmed up to Day 12"}, {"measurement": "concentration of IGF-1 added that increased the amount of extracellular secretion of EPO", "setting": "[2]; Step 2, ELISA, Day 8 cells (FIG. 5)", "result": "≥ 1", "unit": "ng/mL"}]}]}
